# Assay results from patent publication US20120083518A1, “Cancer Treatment Targeting BRCA1-IRIS” (priority 2010, published 2012).
# What was measured:
# Format in all cases: cell-based, human
# [1] = system: p53 phosphorylation in induced IRIS3 cells; test: Immunoblot of p53 phosphorylation (p-p53/p53, ImageJ)
# Procedure: (§1) IRIS 1 and IRIS3 induced for 72 h were exposed to 0, 10, 20 or 40 mJ/cm^2 of UVC irradiation. After 24 h, compared with IRIS1, induced IRIS3 cells treated with 0 mJ/cm^2 UVC had higher levels of BRCA1-IRIS, p53, WIP1, p-p38MAPK, yet similar levels of p38MAPK and p-p53 (FIG. 9F). In 10 and 20 mJ/cm^2 treated cells, BRCA1-IRIS, p53 and WIP1 levels remained higher in induced IRIS3 and no change in p38MAPK level (FIG. 9F). […] Finally, in 40 mJ/cm^2 UVC-treated cells, BRCA1-IRIS, p53 and WIP1 levels were still detectable in induced IRIS3 but not in IRIS1 cells (FIG. 9F). In contrast, IRIS1 and not induced IRIS3 cells contained detectable levels of p-p53 and p-p38MAPK (FIG. 9F). The intensity of the p53, p-p53, p38MAPK and p-p38MAPK bands in FIG. 9F were measured using ImageJ program (NIH) to estimate the level of p53 and p38MAPK activation in BRCA1-IRIS overexpressing cells. About 50% of p53 in IRIS1 cells was phosphorylated before UVC exposure that rose to 80-100% after the exposure (FIG. 9G). In contrast, only 20% of p53 was phosphorylated in induced IRIS3 cells before UVC dropping to <10% after UVC (FIG. 9G). p38MAPK phosphorylation was undetectable in IRIS1 cells before UVC exposure but rose to ˜100% after UVC (FIG. 9G). In induced IRIS3 cells, the 100% of p38MAPK phosphorylated before UVC exposure dropped to <20% after UVC exposure (FIG. 9G). […]
# [2] = system: p38MAPK phosphorylation in induced IRIS3 cells; test: Immunoblot of p38MAPK phosphorylation (p-p38MAPK/p38MAPK, ImageJ)
# Procedure: as §1
# [3] = system: p53 phosphorylation in HME cells; test: Immunoblot of p53 phosphorylation; conditions: 10 μM CCT007093 alone
# Procedure: (§2) CCT007093 is a novel WIP1 specific inhibitor. The HME and induced IRIS3 (72 h) cells were untreated or exposed to 20 mJ/cm^2 UVC, 10 μM of CCT007093 or both. BRCA1-IRIS, p53 and WIP1 level was low in HME and high in IRIS3 cells, whereas p38MAPK was high in both the cell lines. These levels were not changed in both cell lines following any of the treatments (FIG. 9H). p-p53 level was low in untreated HME and IRIS3 cells (FIG. 9H, lanes 1 and 5), rose after UVC treatment, decreased after CCT007093 treatment and increased in UVC+CCT007093-treated HME cells (FIG. 9H) Importantly, in induced IRIS3 cells, p-p53 level decreased after UVC treatment, increased after CCT007093 treatment and remained high after the combined treatment (FIG. 9H).
# (§3) BT474, MCF7 and SKBR3 cells were maintained in Roswell Park Memorial Institute medium (Invitrogen) supplemented with 10% fetal bovine serum and antibiotics. SOAS2 and HEK293T cells were maintained Dulbecco's Modified Eagle medium (Invitrogen) with 10% serum. HME maintenance was as described in ElShamy and Livingston, 2004. Cancer or HME cells were at 80% confluence in 10 cm^2 dishes and were treated with UVC (different doses), SB203580 (10 μM, Sigma, St. Louis, Mo., USA), etoposide (10 μM, Sigma) and H2O2 (15 μM, Sigma) or CCT007093 (10 μM, Santa Cruz, Santa Cruz, Calif., USA), and these drugs were added directly to the cells.
# [4] = system: p38MAPK phosphorylation in HME cells; test: Immunoblot of p38MAPK phosphorylation; conditions: 10 μM CCT007093
# Procedure: as §2, §3
# [5] = system: HME cells; test: TUNEL detection (FragEL DNA fragmentation kit)
# Procedure: (§4) HME and induced IRIS3 (72 h) cells were exposed to 40 mJ/cm^2 UVC, 10 μM of etoposide or 15 μM of H2O2 in the presence or absence of 10 μM of SB203580, p53 siRNA or 10 μM of CCT007093.
# (§5) The Flurescein FragEL DNA Fragmentation Detection Kit was used according to the supplier (Calbiochem) protocol.
# [6] = system: induced IRIS3 cells; test: TUNEL detection (FragEL DNA fragmentation kit)
# Procedure: as §4, §5
# [7] = system: MCF7 cells; test: LIVE/DEAD cell death assay; conditions: for level of cell death: MCF7, all conditions, 10 μM etoposide or 15 μM H2O2
# Procedure: (§6) MCF7 and SKBR3 cell lines transfected with luciferase or BRCA1-IRIS siRNAs in the presence or absence of p38MAPK inhibitor (SB203580) or p53 siRNA were exposed to 40 mJ/cm^2 UVC, 10 μM etoposide or 15 μM H2O2. […] This was confirmed by phase-contrast cell counting (FIG. 9I) and trypan blue exclusion using ViCell (Beckman Coulter, Fullerton, Calif., USA, FIG. 9J).
# (§7) The LIVE/DEAD Fixable Dead Cell Stain Kit was used according to the supplier (Invitrogen) protocol.
# [8] = system: SKBR3 cells; test: LIVE/DEAD cell death assay; conditions: for level of cell death: SKBR3, all conditions, 10 μM etoposide or 15 μM H2O2
# Procedure: as §6, §7
# [9] = system: HOSE/AKT1 cells; test: MTT cell viability after cisplatin; conditions: HOSE/AKT1, cisplatin 48 h
# Description: (§8) MTT and activated caspases 3 and 7 assays. Done using the Cell Titer 96® AQueous One Solution Cell Proliferation Assay (#G3580, Promega) Caspase-Glo 3/7 Assay (#G8091, Promega), respectively as per manufacturer's instructions. Measurements were obtained using optical at 490 nm. Each experiment was done in 8 samples and the whole experiment was repeated 3 separate times.
# [10] = system: HOSE/AKT2 cells; test: MTT cell viability after cisplatin; conditions: HOSE/AKT2, cisplatin 48 h
# Description: as §8
# [11] = system: HOSE/AKT3 cells; test: MTT cell viability after cisplatin; conditions: HOSE/AKT3, cisplatin 48 h
# Description: as §8
# [12] = system: HOSE/IRIS cells; test: MTT cell viability after cisplatin; conditions: cisplatin 48 h
# Description: as §8
# [13] = system: HOSE/survivin cells; test: MTT cell viability after cisplatin; conditions: cisplatin 48 h
# Description: as §8
# [14] = system: HOSE/vector cells; test: MTT cell viability after cisplatin; conditions: cisplatin 48 h
# Description: as §8
# [15] = system: IGROV-1 cells; test: MTT cell viability after cisplatin; conditions: IGROV-1, cisplatin 48 h
# Procedure: as §8, with “times. […] As expected, low viability and high level of active caspase3/7 were detected in IGROV-1 (FIG. 5C), showing an IC50 of ˜5 μM.” for “times.”
# [16] = system: MCAS cells; test: MTT cell viability after cisplatin; conditions: cisplatin 48 h
# Procedure: as §8, with “times. […] As expected, low viability and high level of active caspase3/7 were detected in IGROV-1 (FIG. 5C), showing an IC50 of ˜5 μM.” for “times.”
# [17] = system: OVCAR-5 cells; test: MTT cell viability after cisplatin; conditions: OVCAR-5, cisplatin 48 h
# Procedure: as §8, with “times. […] As expected, low viability and high level of active caspase3/7 were detected in IGROV-1 (FIG. 5C), showing an IC50 of ˜5 μM.” for “times.”
# [18] = system: SK-OV-3 cells; test: MTT cell viability after cisplatin; conditions: SK-OV-3, cisplatin 48 h
# Procedure: as §8, with “times. […] As expected, low viability and high level of active caspase3/7 were detected in IGROV-1 (FIG. 5C), showing an IC50 of ˜5 μM.” for “times.”
# [19] = system: AKT and survivin expression in MCAS cells; test: Immunoblot of AKT, p-AKT and survivin; conditions: cisplatin 35 μM 24 h alone
# Procedure: (§9) Immunoblotting. […] Bcl-2 (clone 124; Dako Diagnostics AG), Bcl-xL (Transduction Laboratories), actin (Ab-1, CP01, Oncogene) and phospho-Survivin (T34, Novus Biologicals). Mouse antibody against BRCA1-IRIS was generated in our laboratory.
# (§10) BRCA1-IRIS overexpression-induced survivin expression is partially PI3′K/AKT-independent. To study this further, MCAS or SK-OV-3 cells were exposed to the PI3′K inhibitor, LY294002 for 24 h or were transfected with BRCA1-IRIS siRNA for 48 h before they were exposed to LY294002 and left for another 24 h. […] Indeed, LY294002 decreased survivin expression in HOSE/vector cells but had little effect in HOSE/IRIS cells (FIG. 3B).
# (§11) BRCA1-IRIS downregulation sensitizes ovarian cancer cell lines to cisplatin-induced survivin downregulation and cell death.
# [20] = system: BRCA1-IRIS, AKT and survivin expression in SK-OV-3 cells; test: Immunoblot of BRCA1-IRIS, AKT, p-AKT and survivin; conditions: SK-OV-3, cisplatin 35 μM 24 h alone
# Procedure: as §9
# BRCA1-IRIS-induced survivin expression is partially AKT-dependent. AKT (siRNA silences AKT1 and AKT2), BRCA1-IRIS, survivin or AKT and BRCA1-IRIS were silenced in SK-OV-3 cells (endogenously overexpressing all proteins, see FIG. 1B) for 72 h. […] Survivin silencing had no effect on BRCA1-IRIS or AKTs the expression (FIG. 2G). Identical results were obtained using MCAS cell line.
# as §10, §11
# [21] = system: BRCA1-IRIS, AKT and survivin expression in HOSE cells; test: Immunoblot of BRCA1-IRIS, AKT and survivin after cisplatin; conditions: 24 h
# Description: as §9
# Ovarian cancer cells expressing high level of survivin usually are cisplatin-resistant.
# [22] = system: AKT1, AKT2 and survivin expression in OVCAR-5 cells; test: Immunoblot of AKT1, AKT2 and survivin; conditions: OVCAR-5, cisplatin 35 μM 24 h alone
# Description: as §9, §11
# [23] = system: p53 and p38MAPK phosphorylation in IRIS1 cells; test: Immunoblot of p-p53 and p-p38MAPK after etoposide
# Procedure: (§12) Induced IRIS2 on the other hand maintained high level of BRCA1-IRIS, p53 and WIP1 even in the presence of 50 μM of etoposide and had similar level of total p38MAPK (FIG. 8I). Etoposide treatment triggered p53 phosphorylation in IRIS1 but not in the induced IRIS2 cells (Supplementary FIG. 8I).
# [24] = system: p53 and p38MAPK phosphorylation in induced IRIS2 cells; test: Immunoblot of p-p53 and p-p38MAPK after etoposide
# Procedure: as §12
# [25] = induced IRIS3, 20 mJ/cm^2 UVC in presence of 10 μM CCT007093
# [26] = HME, 10 μM etoposide or 15 μM H2O2
# [27] = induced IRIS3, 10 μM etoposide or 15 μM H2O2
compound,measurement,setting,value
O=C1/C(=C/c2cccs2)CC/C1=C\c1cccs1 [CCT007093],p-p53 level,"[1]; induced IRIS3, 10 μM CCT007093 alone",increased
same,p53 phosphorylated (p-p53/p53 ratio),[1]; [25],~75%
same,p-p38MAPK level,"[2]; induced IRIS3, 10 μM CCT007093 alone or with UVC",remained high
same,p38MAPK phosphorylated (p-p38MAPK/p38MAPK ratio),[2]; [25],~55%
same,p-p53 level,[3],decreased
same,p-p38MAPK level,[4],increased
same,number of TUNEL+ cells,"[5]; HME under UVC, etoposide or H2O2, 10 μM CCT007093 vs vehicle",not
same,number of TUNEL+ cells,"[5]; HME, 10 μM CCT007093, no stress treatment",increased slightly yet significantly
same,number of TUNEL+ cells,"[6]; induced IRIS3, 10 μM CCT007093, no stress treatment",not
same,number of TUNEL+ cells,"[6]; induced IRIS3 under UVC, etoposide or H2O2, 10 μM CCT007093 vs vehicle",significantly increased
OO [H2O2],number of TUNEL+ cells,[5]; [26],markedly increased
same,number of TUNEL+ cells,[6]; [27],only modestly increasing
same,level of cell death,[7],increased
same,level of cell death,[8],increased
C[S+]([O-])c1ccc(-c2nc(-c3ccncc3)c(-c3ccc(F)cc3)[nH]2)cc1 (centres unmarked) [SB203580],number of TUNEL+ cells,"[5]; HME under UVC, etoposide or H2O2, plus 10 μM SB203580 or p53 siRNA",significantly reduced
same,number of TUNEL+ cells,"[6]; induced IRIS3 under UVC, etoposide or H2O2, plus 10 μM SB203580 or p53 siRNA",stayed the same
same,dead cells induced by BRCA1-IRIS silencing,"[7]; MCF7, BRCA1-IRIS silenced plus SB203580 or p53 siRNA",significantly reduced
same,dead cells induced by BRCA1-IRIS silencing,"[8]; SKBR3, BRCA1-IRIS silenced plus SB203580 or p53 siRNA",significantly reduced
N.N.[Cl][Pt][Cl] [cisplatin],IC50,[9],~75 µM
same,IC50,[10],~75 µM
same,IC50,[11],15 to 20 µM
same,IC50,[12],~75 µM
same,IC50,[13],~75 µM
same,IC50,[14],15 to 20 µM
same,IC50,[15],~5 µM
same,IC50,[16],~40 µM
same,IC50,[17],~25 µM
same,IC50,[18],~40 µM
same,"expression of AKT1, AKT2 and survivin",[19],modestly decreased
same,"expression of AKT1, AKT2 and survivin",[20],modestly decreased
same,"BRCA1-IRIS, AKT and survivin expression",[21]; high concentrations cisplatin (>50 μM),abolished
same,"BRCA1-IRIS, AKT and survivin expression",[21]; low concentrations cisplatin (≦50 μM),triggered
same,"expression of AKT1, AKT2 and survivin",[22],modestly decreased
COc1cc([C@@H]2c3cc4c(cc3[C@@H](O[C@@H]3O[C@@H]5CO[C@@H](C)O[C@H]5[C@H](O)[C@H]3O)[C@H]3COC(=O)[C@H]23)OCO4)cc(OC)c1O [etoposide],number of TUNEL+ cells,[5]; [26],markedly increased
same,number of TUNEL+ cells,[6]; [27],only modestly increasing
same,level of cell death,[7],increased
same,level of cell death,[8],increased
same,p-p38MAPK level,"[23]; IRIS1, after etoposide treatment",increased significantly
same,p53 phosphorylation,"[23]; IRIS1, etoposide 5, 10 or 50 μM, 24 h",triggered
same,p-p38MAPK level,"[24]; induced IRIS2, after etoposide treatment",sharply dropped
same,p53 phosphorylation,"[24]; induced IRIS2, etoposide 5, 10 or 50 μM, 24 h",not
